Experimental data as given in patent US20020123524A1, “Treatment of vascular events using lipid-modifying compositions” (priority 1998, published 2002).

Columns and labels:
[1] = VA-HIT trial: CHD death, nonfatal MI, stroke and other clinical endpoints, adverse events; assay type: in vivo; conditions: for Relative risk reduction, CHD death/nonfatal MI (heart attacks and cardiac deaths): primary endpoint, p=0.0063
Description: (§1) This study, the Veterans Administration HDL-C Intervention Trial (VA-HIT), was a seven year, 20 center, randomized, placebo-controlled, double blind secondary prevention trial designed to determine if a fibric acid (e.g., gemfibrozil) reduced the incidence of myocardial infarction (MI) and CHD death in male patients who have low levels of both HDL-C and LDL-C. […] Primary endpoints and the secondary endpoint, stroke, were adjudicated by blinded committees using standard criteria. Gemfibrozil (1200mg/day, orally) was selected with the goal of raising HDL-C and lowering triglycerides (TG) without affecting LDL-C.
(§2) “Low HDL-C” was defined as less than 40 mg/dL and “low LDL-C” was defined as less than 140 mg/dL values which are based on the entrance lipid criteria for the population enrolled in VA-HIT. With these lipid criteria, the mean entrance value at baseline of HDL-C was 32 mg/dL and of LDL-C was 111 mg/dL.
(§3) 2531 patients were enrolled and followed for a median of 5 years. Compliance, lipid changes, endpoints rates, losses to follow-up, and crossovers to active treatment have been consistent with the original projections. At baseline, the mean age was 64 yrs; average lipid values were, in mg/dL: HDL-C 32; TG 161; LDL-C 111; total cholesterol 176. (For comparison, the mean baseline LDL-C in recent major secondary prevention trials was 189 in the Scandinavian Simvastatin Survival Study, 139 in the Cholesterol and Recurrent Events study, and 150 in the Long-Term Intervention with Pravastatin in Ischemic Disease study). The mean body mass index was 29±5. The prevalence of diabetes was 31% and of hypertension 57%. Aspirin and beta blockers were used by 82%, and 43% of patients, respectively.
(§4) VA-HIT was a major clinical trial to investigate whether lipid therapy benefits people with heart disease whose primary lipid abnormality is a low level of HDL-C. The VA-HIT study enrolled 2531 male veterans with heart disease who had low levels of LDL-C cholesterol and low levels of HDL-C cholesterol. The average LDL-C level was 111 mg/dL and HDL-C was 32 mg/dL. Patients were randomly assigned to receive either gemfibrozil or a placebo.
The reduction in the incidence or severity of vascular disease was determined by comparing data from individuals undergoing the methods of the present invention to those who were not. Data regarding the incidence or occurrence of a vascular event including death were obtained from control patients having the same or similar disease states under the same or similar conditions as the individual undergoing the methods of the present invention. The control patient received a placebo, as opposed to the test patients who received the lipid modifying drug.
(§5) 2531 men with CHD enrolled in trial 1991-1993. The trial ended 7/31/98 with median follow-up of 5.1 years. Vital status of patients known is 99.2%. 71% remained on assigned therapy at end of trial which is about the average in a long trial.

[2] = VA-HIT subgroup analysis: diabetes and hyperinsulinemia, CHD and stroke events, mortality; assay type: in vivo, men; parameters: Overall Risk Reduction with Gemfibrozil (cardiovascular or cerebrovascular event) / Overall Risk Reduction with Gemfibrozil: concentration or dose not given beside the values; conditions: for Five Year Event Rate, Stroke / Five Year Event Rate, CHD: Gemfibrozil Group
Description: Determining whether an individual has Type 2 diabetes and/or hyperinsulinemia can be done using assays that are well known in the art. Several assays are commercially available. The levels that define whether an individual has Type 2 diabetes or hyperinsulinemia vary depending on the type of assay used. An example of an assay that can measure glucose tolerance or glucose levels is one that uses glucose oxidase as a reagent. Using such a test, levels of fasting glucose of greater than or equal to about 126 mg/dL characterize a type 2 diabetic. An assay referred to as “Coat-A-Count” (Diagnostic Products, Los Angeles, Calif.) is an example of an assay that measures insulin. Levels of fasting insulin above about 40 μU/mL using the Coat-A-Count assay are levels that characterize an individual with hyperinsulinemia. For the data described in Example 2, insulin resistance (hyperinsulinemia) was defined by the levels of insulin determined in the Framingham Offspring Population. Meigs J B, et al., Metabolic Risk Factors Worsen Continuously Across the Spectrum of Nondiabetic Glucose Tolerance, The Framingham Offspring Study. Ann Intern Med 128:524-533 (1998). Subjects, described in Example 2, were designated as diabetic by having a history of diabetes or a fasting plasma glucose of about 126 mg/dL or greater and as being hyperinsulinemic with a fasting plasma insulin of about 40 μU/mL or greater. This value of insulin marked the 90th percentile of values for subjects with normal glucose tolerance in the Framingham Offspring Study. This value also corresponded to the level of insulin at which there was a significant increase in CHD events in Example 2.
Fibric acid decreases incidence of vascular events in diabetic patients (e.g., events that cause the heart to have irregular rhythms such as ventricular fibrillation, ventricular tachycardia, asystole, and includes, for example, myocardial infarction, angina, and death).
Diabetes mellitus (DM) has long been recognized as a major risk factor for a vascular atherothrombotic event, most particularly coronary heart disease and cerebrovascular disease. […] Although patients with DM were not singled out as a specific recruitment target (i.e., not a specific target for fibrate therapy in VA-HIT), patients with DM frequently have a low HDL-C and, thus, were clearly eligible for VA-HIT and treatment with the fibrate, genfibrozil.
Thus, 31% of VA-HIT patients had diabetes. […] There is evidence that patients with high insulin levels (i.e., patients with “hyperinsulinemia” or “insulin resistance”) but without overt DM have as high a risk of coronary heart disease as is associated with DM itself. Consequently, 47% of patients in VA-HIT had either DM or hyperinsulinemia and in this large subgroup of patients, both coronary heart disease (CHD) events and stroke were higher than in the remainder of VA-HIT patients and the benefit of fibrate therapy was greater.

[3] = VA-HIT trial: percent change in plasma lipids with gemfibrozil vs placebo; assay type: in vivo, men; conditions: for Effect on HDL-C level (in words): compared to controls treated with placebo
Experimental: Lipoproteins levels and triglyceride levels are measured and assessed using routine methods known in the art. Commercially available kits and assays may be used to evaluate the level of HDL-C, LDL-C and level of triglyceride.
as §1, §2, §3, §4, §5

[4] = gemfibrozil 1200 mg/day orally, men with CHD, low HDL-C and low LDL-C, statistically significant difference vs placebo

Question: Which results are given for `Cc1ccc(C)c(OCCCC(C)(C)C(=O)O)c1` [Gemfibrozil, 5-(2,5-dimethylphenoxy)-2,2-dimethylpentanoic acid]?
Answer: Effectiveness in subgroups (in words) ([1]; both diabetics and non-diabetics, younger as well as older patients): effective; New or recurrent CHD events, including nonfatal MI, CHD death, certain forms of stroke or TIA (in words) ([1]; gemfibrozil 1200 mg/day): significant reduction; Primary endpoint CHD death/nonfatal MI, rate in treatment group ([1]; gemfibrozil 1200 mg/day, median follow-up 5.1 years, placebo 22%): 17%; Major adverse events (deaths from any cause and cancer monitored) ([1]; gemfibrozil 1200 mg/day, seven year study): not associated with any major adverse events; Incidence rate: carotid endarterectomy ([1]; gemfibrozil group, placebo 3.5%): 1.3%; Incidence rate: transient ischemia attack (TIA) ([1]; gemfibrozil group, placebo 4.2%): 1.7%; Incidence rate: total reported stroke ([1]; gemfibrozil group, placebo 7.0%): 5.0%; Incidence rate: hospitalization for congestive heart failure ([1]; gemfibrozil group, placebo 13.3%): 10.6%; Reduction in combined endpoint of heart attacks, cardiac deaths, and strokes ([1]; gemfibrozil vs placebo, p=0.0011): 24%; Relative risk reduction, CHD death/nonfatal MI (heart attacks and cardiac deaths) ([1]; gemfibrozil vs placebo, listed as GEMFIBROZIL): 22%; Relative risk reduction, CHD death/nonfatal MI (heart attacks and cardiac deaths) ([1]; gemfibrozil vs placebo, listed as gemfibrozil): 22%; Number of patients needed to be treated to prevent one heart attack, cardiac death, or stroke ([1]; over a time period (e.g., between 1 and 5 years)): 18 patients; RRR (relative risk reduction with gemfibrozil), All-Cause Mortality ([2]; Diabetes + Hyperinsulinemia alone, N 1157, P 0.021): 26%; RRR (relative risk reduction with gemfibrozil), CHD Death ([2]; Diabetes, N 769, P 0.016): 41%; RRR (relative risk reduction with gemfibrozil), All-Cause Mortality ([2]; Diabetes, N 769, P 0.059): 25%; Five Year Event Rate, Stroke ([2]; subgroup All Others, placebo 4.0): 3.2%; Five Year Event Rate, CHD ([2]; subgroup All Others, placebo 16.6): 15.3%; Five Year Event Rate, Stroke ([2]; subgroup Diabetes, placebo 10.5): 6.6%; Five Year Event Rate, CHD ([2]; subgroup Diabetes, placebo 29.4): 21.2%; Five Year Event Rate, Stroke ([2]; subgroup Hyperinsulinemia (includes hyperinsulinemia + diabetes), placebo 8.1): 6.2%; Five Year Event Rate, CHD ([2]; subgroup Hyperinsulinemia (includes hyperinsulinemia + diabetes), placebo 27.7): 20.9%; Five Year Event Rate, Stroke ([2]; subgroup Hyperinsulinemia alone, placebo 4.3): 4.7%; Five Year Event Rate, CHD ([2]; subgroup Hyperinsulinemia alone, placebo 23.1): 16.8%; 5-year incidence rate of all-cause mortality (in words) ([2]; patients with DM and isolated hyperinsulinemia analysed together): significantly reduce; Overall Risk Reduction with Gemfibrozil ([2]; subgroup All Others): 10.3%; Overall Risk Reduction with Gemfibrozil (cardiovascular or cerebrovascular event) ([2]; subgroup Diabetes): 30.3%; Overall Risk Reduction with Gemfibrozil ([2]; subgroup Hyperinsulinemia (includes hyperinsulinemia + diabetes)): 24.2%; Overall Risk Reduction with Gemfibrozil ([2]; subgroup Hyperinsulinemia alone): 21.7%; Reduction of CHD death (in words) ([2]; subgroup of patients with DM and hyperinsulinemia): particularly effective; Effect on HDL-C level (in words) [3]: significantly raised; Effect on HDL-C level (in words) ([3]; listed as gemfibrozil): significantly increased; Effect on LDL-C level (in words) ([3]; compared to placebo): did not lower; Effect on triglycerides (in words) ([3]; compared to placebo): lowered; Effect on LDL-C level (in words) ([3]; compared to placebo, listed as gemfibrozil): no effect; Percent change in Lipids: LDL-C ([3]; gemfibrozil 1200 mg/day orally, men with CHD, low HDL-C and low LDL-C, not marked significant): +3.6%; Percent change in Lipids: HDL-C [3, 4]: +7.5%; Percent change in Lipids: Triglycerides [3, 4]: −24.5%; Percent change in Lipids: total cholesterol [3, 4]: −2.9%
